This is an account of results in ChEMBL document CHEMBL5149982, “Development of Potent NEDD8-Activating Enzyme Inhibitors Bearing a Pyrimidotriazole Scaffold” (J Med Chem, 2021).

SMILES strings stand for the structures. A value given as a limit tells only on which side of the number the result lay.

One data set deals with RKO. The data set is described as follows: Antiproliferative activity against human RKO cells assessed as cell growth inhibition measured after 72 hrs by SRB assay. It counts as functional, cell-based.
Data set [1] in a line: Observed AUCinfinity in Sprague-Dawley rat at 1 mg/kg, iv. Type of data set: ADME, organism-based. The arrangement: time infinity, dose 1 mg/kg, route iv. The conditions noted are these: in vivo.
The next data set deals with LNCaP-Clone-FGC. The data set is described as follows: Antiproliferative activity against human LNCaP-Clone-FGC cells assessed as cell growth inhibition measured after 72 hrs by SRB assay. Type of data set: functional, cell-based. (The SRB assay estimates cell density from bound dye.)
The subject of a further data set is MV4-11. Briefly: Antiproliferative activity against human MV4-11 cells assessed as cell growth inhibition measured after 72 hrs by SRB assay. It counts as functional, cell-based. The conditions noted are these: MV4-11, 72 h.
Data set [2] has as its system HCT-116. Briefly: Antitumor activity against human HCT-116 cells xenografted in nude mouse assessed as reduction in tumor growth at 60 mg/kg, sc bid administered at 5 on/5 off/8 for 18 days. Type of data set: functional. As to conditions: time 18 day. On the technique in general: Xenograft models place foreign cells or tissue in a host animal.
The target in data set [3] is T1, Serine/threonine-protein kinase TAO1 (Homo sapiens) (UniProt Q7L7X3).
T1 sequence (whole entry): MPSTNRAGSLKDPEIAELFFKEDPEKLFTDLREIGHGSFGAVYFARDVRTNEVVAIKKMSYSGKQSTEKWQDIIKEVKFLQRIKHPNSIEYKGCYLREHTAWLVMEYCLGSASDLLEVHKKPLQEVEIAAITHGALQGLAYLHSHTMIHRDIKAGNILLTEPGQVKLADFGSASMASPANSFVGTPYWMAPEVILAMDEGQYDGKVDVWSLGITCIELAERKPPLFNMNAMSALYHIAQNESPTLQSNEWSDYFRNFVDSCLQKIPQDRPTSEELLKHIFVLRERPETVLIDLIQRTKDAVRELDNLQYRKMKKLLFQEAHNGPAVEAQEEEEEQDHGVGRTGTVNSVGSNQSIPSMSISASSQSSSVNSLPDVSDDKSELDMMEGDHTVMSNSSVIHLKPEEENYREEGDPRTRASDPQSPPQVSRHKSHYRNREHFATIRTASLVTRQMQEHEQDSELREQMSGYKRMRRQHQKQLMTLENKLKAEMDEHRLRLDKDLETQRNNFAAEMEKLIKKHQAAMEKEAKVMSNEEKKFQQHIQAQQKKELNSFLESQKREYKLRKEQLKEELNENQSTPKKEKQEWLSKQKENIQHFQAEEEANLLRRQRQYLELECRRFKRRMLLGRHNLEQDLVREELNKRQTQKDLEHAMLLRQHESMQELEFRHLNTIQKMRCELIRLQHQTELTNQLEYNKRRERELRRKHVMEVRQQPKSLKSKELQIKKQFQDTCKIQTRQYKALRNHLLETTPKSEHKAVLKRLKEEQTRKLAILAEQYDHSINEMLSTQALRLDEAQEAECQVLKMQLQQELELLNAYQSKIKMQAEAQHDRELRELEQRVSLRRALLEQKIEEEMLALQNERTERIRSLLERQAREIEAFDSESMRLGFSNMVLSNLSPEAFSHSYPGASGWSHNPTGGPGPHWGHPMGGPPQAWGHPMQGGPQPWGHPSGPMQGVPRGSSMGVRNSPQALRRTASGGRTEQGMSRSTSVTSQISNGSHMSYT
Briefly: Inhibition of human partial length wild type TAOK1 by measuring selectivity score at 1 uM by Kinomescan method relative to control.

Data set [4] can be described thus: Half life in Sprague-Dawley rat at 1 mg/kg, iv. The conditions noted are these: in vivo. It counts as ADME, organism-based.
A further data set has as its system THP-1. Briefly: Antiproliferative activity against human THP-1 cells assessed as cell growth inhibition measured after 72 hrs by SRB assay. It counts as functional, cell-based. The conditions noted are these: THP-1, 72 h.
A further data set concerns DU-145. The data set is described as follows: Antiproliferative activity against human DU-145 cells assessed as cell growth inhibition measured after 72 hrs by SRB assay. It counts as functional, cell-based. The conditions noted are these: DU-145, 72 h.
The subject of data set [5] is HCT-116. Briefly: Antiproliferative activity against human HCT-116 cells assessed as cell growth inhibition measured after 72 hrs by SRB assay. As to conditions: HCT-116, 72 h. It counts as functional, cell-based.
Data set [6] addresses T1, Serine/threonine-protein kinase TAO1 (Homo sapiens). Briefly: Inhibition of human partial length wild type TAOK1 at 1 uM by Kinomescan method relative to control.
Data set [7] in a line: AUClast in Sprague-Dawley rat at 1 mg/kg, iv. Type of data set: ADME, organism-based. Further details: time 0 - last, dose 1 mg/kg, route iv. As to conditions: in vivo.
Data set [8] is described as follows: Observed MRTinfinity in Sprague-Dawley rat at 1 mg/kg, iv. It counts as ADME, organism-based. The conditions noted are these: in vivo.
Data set [9] deals with HCT-116. The data set is described as follows: Antiproliferative activity against human HCT-116 cells assessed as cell growth inhibition by sulforhodamine B assay. Type of data set: functional, cell-based.
A further data set concerns HT-29. Briefly: Antiproliferative activity against human HT-29 cells assessed as cell growth inhibition measured after 72 hrs by SRB assay. Type of data set: functional, cell-based. As to conditions: HT-29, 72 h.
A short description of data set [10]: Inhibition of UAE (unknown origin) […] assessed as decrease in UbcH10-Ub adduct formation incubated for 2 hrs in presence of L-glutathione and ATP by HTRF assay. The arrangement: species or system Homo sapiens. (In general: In TR-FRET formats the signal depends on donor and acceptor labels being close together.)
A short description of data set [11]: Volume of distribution at steady state in Sprague-Dawley rat at 1 mg/kg, iv. Type of data set: ADME, organism-based. The conditions noted are these: in vivo, read-out: Vdss.
The next data set concerns CAPAN-1. The data set is described as follows: Antiproliferative activity against human CAPAN-1 cells assessed as cell growth inhibition measured after 72 hrs by SRB assay. The conditions noted are these: CAPAN-1, 72 h. Type of data set: functional, cell-based.
In the next data set the test system is HuTu80. The data set is described as follows: Antiproliferative activity against human HuTu80 cells assessed as cell growth inhibition measured after 72 hrs by SRB assay. It counts as functional, cell-based. The conditions noted are these: HuTu80, 72 h.
In data set [12] the target is Voltage-gated inwardly rectifying potassium channel KCNH2 (Homo sapiens, UniProt Q12809). The data set is described as follows: Inhibition of hERG channel. It counts as toxicity.
The test system of the next data set is Jurkat. The data set is described as follows: Antiproliferative activity against human Jurkat cells assessed as cell growth inhibition measured after 72 hrs by SRB assay. Type of data set: functional, cell-based.
Data set [13] can be described thus: Clearance in Sprague-Dawley rat at 1 mg/kg, iv. Type of data set: ADME, organism-based. The conditions noted are these: in vivo.
Data set [14] is described as follows: Toxicity in nude mouse xenografted with human HCT-116 cells assessed as effect on body weight at 60 mg/kg, sc bid administered at 5 on/5 off/8 for 18 days. Type of data set: organism-based. The conditions noted are these: in vivo, 432 h, time 18 day.

Voltage-gated inwardly rectifying potassium channel KCNH2, sequence (Q12809 whole entry): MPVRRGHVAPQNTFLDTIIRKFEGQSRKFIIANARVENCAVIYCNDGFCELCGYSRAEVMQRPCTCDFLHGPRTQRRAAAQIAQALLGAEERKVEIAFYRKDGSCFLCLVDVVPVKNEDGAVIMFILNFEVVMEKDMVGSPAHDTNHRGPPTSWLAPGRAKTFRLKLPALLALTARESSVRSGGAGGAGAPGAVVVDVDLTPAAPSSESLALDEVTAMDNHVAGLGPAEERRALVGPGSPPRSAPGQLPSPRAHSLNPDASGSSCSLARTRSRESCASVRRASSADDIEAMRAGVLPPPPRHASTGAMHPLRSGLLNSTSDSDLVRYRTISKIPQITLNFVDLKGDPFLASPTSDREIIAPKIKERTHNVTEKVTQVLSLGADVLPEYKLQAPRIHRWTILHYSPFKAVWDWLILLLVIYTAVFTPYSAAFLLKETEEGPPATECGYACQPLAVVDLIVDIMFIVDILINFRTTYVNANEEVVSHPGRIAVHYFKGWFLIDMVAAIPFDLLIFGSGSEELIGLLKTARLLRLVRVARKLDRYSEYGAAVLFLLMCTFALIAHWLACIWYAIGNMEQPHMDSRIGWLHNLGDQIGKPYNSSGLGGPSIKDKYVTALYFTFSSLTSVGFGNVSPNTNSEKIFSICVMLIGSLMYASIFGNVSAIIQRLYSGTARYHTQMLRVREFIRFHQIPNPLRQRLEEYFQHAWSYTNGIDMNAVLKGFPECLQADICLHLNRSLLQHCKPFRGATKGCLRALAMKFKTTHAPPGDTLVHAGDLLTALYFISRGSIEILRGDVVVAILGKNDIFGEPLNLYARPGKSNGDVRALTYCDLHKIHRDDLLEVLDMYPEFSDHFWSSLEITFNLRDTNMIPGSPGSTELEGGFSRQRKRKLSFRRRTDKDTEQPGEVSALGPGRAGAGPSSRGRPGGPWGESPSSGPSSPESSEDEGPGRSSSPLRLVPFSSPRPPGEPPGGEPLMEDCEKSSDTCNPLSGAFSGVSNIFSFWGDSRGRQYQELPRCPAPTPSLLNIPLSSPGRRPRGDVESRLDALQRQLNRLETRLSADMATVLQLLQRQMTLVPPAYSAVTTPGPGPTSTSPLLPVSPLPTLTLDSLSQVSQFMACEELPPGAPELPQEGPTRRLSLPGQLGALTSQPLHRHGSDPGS

In the case of `NS(=O)(=O)OC[C@@H]1C[C@@H](n2ccc3c(N[C@H]4CCc5ccccc54)ncnc32)C[C@@H]1O` [PEVONEDISTAT], the half-maximal inhibitory concentration (IC50) (commonly the concentration needed to halve the response being measured) with RKO amounted to 166 nM; with LNCaP-Clone-FGC, 64.6 nM; with MV4-11 it was 107 nM; with THP-1, 115 nM; in the data set on DU-145 it was 201 nM; in the data set on HCT-116 [5] it was 36.2 nM. Further, the half-inhibitory concentration (IC50) with HCT-116 [9] was 33.9 nM; with HT-29 it was 484 nM; in data set [10] it was 3.72 nM; in the data set on CAPAN-1, 101 nM; with HuTu80, 42.6 nM; in data set [12] it was greater than 40000 nM. For the same compound, the IC50 in the data set with Jurkat turned out to be 152 nM. Further, the area under the curve AUC(0-inf) (commonly the area under the concentration-time curve extrapolated to infinity) in data set [1] stood at 1340 ng·h/mL. Moreover, in the data set with HCT-116 [2], the T/C came out at 0.1. Also, the Activity was 0.002 in data set [3] and “Non-Toxic” in data set [14]. For the same compound, the half-life (in general, the time needed for the level to fall by half in the phase considered) in [4] was 1.36 h. Further, the inhibition (commonly the share of the control response that was lost under treatment) in data set [6] amounted to 35%. In addition, the AUC(0-t) (as a rule, exposure summed from dosing to a finite time, without extrapolation to infinity) in data set [7] was found to be 1330 ng·h/mL. For the same compound, in data set [8], the MRT inf (as a rule, a mean duration of stay, worked out from the concentration-time curve) came to 1.9 h. Also, the Vd in [11] turned out to be 1.63 L/kg. Moreover, the clearance (in general, a measure of how efficiently the substance is removed, as volume per time) in data set [13] amounted to 16.5 mL/min/kg.
